The text below walks through data of ChEMBL document CHEMBL1142042, “Nonpeptide alpha(v)beta3 antagonists: identification of potent, chain-shortened 7-oxo RGD mimetics” (Bioorg Med Chem Lett, 2005).

One data set deals with Integrin alpha-V/beta-3 (Homo sapiens, UniProt P05106+P06756). In words: Inhibition of 2(S)-(4-125I-benzenesulphonylamino)-3-4-[2-(5,6,7,8-tetrahydro- [1,8]naphthyridin-2-yl)-ethyl]-benzoylamino-propionic acid binding to alphaV-beta3 integrin. The data set is classed as protein-complex assay.
Sequence of Integrin alpha-V/beta-3 (P05106 27-788 limits assumed): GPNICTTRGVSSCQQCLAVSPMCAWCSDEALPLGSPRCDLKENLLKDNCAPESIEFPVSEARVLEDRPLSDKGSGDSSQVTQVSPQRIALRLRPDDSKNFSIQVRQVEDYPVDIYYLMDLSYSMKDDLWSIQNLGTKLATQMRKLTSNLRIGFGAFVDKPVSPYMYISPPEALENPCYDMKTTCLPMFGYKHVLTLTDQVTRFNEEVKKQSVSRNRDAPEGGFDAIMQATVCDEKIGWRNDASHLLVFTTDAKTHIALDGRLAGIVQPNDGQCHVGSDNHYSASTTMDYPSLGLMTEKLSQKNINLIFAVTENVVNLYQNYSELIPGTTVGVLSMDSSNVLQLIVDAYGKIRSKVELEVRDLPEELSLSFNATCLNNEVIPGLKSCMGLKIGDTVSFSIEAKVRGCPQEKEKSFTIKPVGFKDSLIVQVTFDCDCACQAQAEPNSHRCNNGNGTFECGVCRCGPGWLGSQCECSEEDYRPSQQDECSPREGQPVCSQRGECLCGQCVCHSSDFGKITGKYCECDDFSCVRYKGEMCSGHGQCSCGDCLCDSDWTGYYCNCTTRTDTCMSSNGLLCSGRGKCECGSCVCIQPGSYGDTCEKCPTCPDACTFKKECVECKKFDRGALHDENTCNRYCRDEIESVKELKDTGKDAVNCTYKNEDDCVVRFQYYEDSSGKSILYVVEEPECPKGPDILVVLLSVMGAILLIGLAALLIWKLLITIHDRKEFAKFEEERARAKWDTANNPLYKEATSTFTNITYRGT
Sequence of Integrin alpha-V/beta-3 (P06756 31-889 limits assumed): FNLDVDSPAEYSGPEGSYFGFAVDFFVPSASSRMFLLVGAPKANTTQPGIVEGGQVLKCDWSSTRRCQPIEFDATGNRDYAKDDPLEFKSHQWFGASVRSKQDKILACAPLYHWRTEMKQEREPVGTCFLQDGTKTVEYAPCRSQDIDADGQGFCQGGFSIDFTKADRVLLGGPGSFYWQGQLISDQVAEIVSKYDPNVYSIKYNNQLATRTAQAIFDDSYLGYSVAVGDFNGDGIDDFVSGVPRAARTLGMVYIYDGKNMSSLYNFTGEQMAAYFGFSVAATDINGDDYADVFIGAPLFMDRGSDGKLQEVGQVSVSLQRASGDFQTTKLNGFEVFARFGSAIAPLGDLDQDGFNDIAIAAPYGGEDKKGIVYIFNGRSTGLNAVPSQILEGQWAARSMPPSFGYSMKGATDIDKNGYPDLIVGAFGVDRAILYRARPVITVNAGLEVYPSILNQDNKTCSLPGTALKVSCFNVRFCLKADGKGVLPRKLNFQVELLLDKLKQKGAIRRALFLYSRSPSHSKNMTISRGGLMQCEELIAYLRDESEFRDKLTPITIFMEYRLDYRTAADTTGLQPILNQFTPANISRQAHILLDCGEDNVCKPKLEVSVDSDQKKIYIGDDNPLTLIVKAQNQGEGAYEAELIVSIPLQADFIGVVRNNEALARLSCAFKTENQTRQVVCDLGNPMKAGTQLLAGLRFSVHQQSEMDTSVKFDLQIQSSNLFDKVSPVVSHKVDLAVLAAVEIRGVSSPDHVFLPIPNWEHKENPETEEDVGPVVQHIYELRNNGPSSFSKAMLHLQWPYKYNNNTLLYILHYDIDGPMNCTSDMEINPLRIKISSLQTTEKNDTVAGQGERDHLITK
Sequence of Integrin alpha-V/beta-3 (P06756 891-1048 limits assumed): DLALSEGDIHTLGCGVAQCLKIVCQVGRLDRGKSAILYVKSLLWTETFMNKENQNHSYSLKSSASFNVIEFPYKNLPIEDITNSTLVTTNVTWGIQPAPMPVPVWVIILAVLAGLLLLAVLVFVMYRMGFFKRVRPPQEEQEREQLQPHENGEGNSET
Data set [1] can be described thus: In vitro inhibition of mouse osteoblast-like 1.8 cells transformation into osteoclasts. The data set is classed as functional.
The nature of data set [2]: Partition coefficient (logP). The conditions noted are these: octanol/water. The data set is classed as physicochemical.
The nature of data set [3]: Clearance when dosed intravenously at 0.2 mpk to dogs; n = 2. The format is ADME, organism-based, Canis lupus familiaris. The settings on record: dog, in vivo, iv, 0.2 mg/kg.
Data set [4] can be described thus: Oral bioavailability in dog (dose 1 mg/kg). The conditions noted are these: in vivo. The data set is classed as ADME, organism-based, Canis lupus familiaris.
Data set [5] in a line: Plasma half life when dosed orally at 1 mpk and intravenously at 0.2 mpk to dogs; n = 2. The format is ADME, organism-based, Canis lupus familiaris. The conditions noted are these: dog.

The term IC50 denotes the point on the concentration scale where inhibition reaches its midpoint. The term logP denotes a log measure of how a compound divides between an organic and an aqueous phase. The low end stands for a more hydrophilic compound, the high end for a more lipophilic compound. The term clearance denotes the volume of plasma or blood freed of the substance per unit of time. Lower therefore signals a low capacity for elimination. The term bioavailability denotes the share of a dose that reaches the circulation, judged against a reference dose that is usually intravenous. By half-life is commonly meant how long it takes for the measured level to halve.

`COc1ccc([C@@H](CCC[C@@H](O)CCc2ccc3c(n2)NCCC3)CC(=O)O)cn1`: the results for the concentration for half-maximal inhibition (IC50) (on Integrin alpha-V/beta-3; in data set [1]) were 0.24 nM and 36 nM, respectively. Also, the logP in data set [2] is 0.
For `COc1ccc([C@@H](CCC[C@H](O)CCc2ccc3c(n2)NCCC3)CC(=O)O)cn1`, the clearance in data set [3] came out at 2.5 mL/min/kg. In addition, the bioavailability in data set [4] worked out at 60%. Moreover, the IC50 on Integrin alpha-V/beta-3 amounted to 0.24 nM; in data set [1], 8 nM. Also, in data set [5], the half-life was 6.1 h. Also, the logP in data set [2] was 0.1.
With `COc1ccc([C@@H](CCCC(=O)CCc2ccc3c(n2)NCCC3)CC(=O)O)cn1`, in data set [3], the clearance came to 6.7 mL/min/kg. For the same compound, the bioavailability in data set [4] came to 75%. Besides, the values for the IC50 (on Integrin alpha-V/beta-3; in data set [1]) were 0.16 nM and 12 nM, respectively. The compound also had a half-life in data set [5] of 7 h. In data set [2], this compound returned a logP of 0.
`COc1ccc([C@@H](CCCCCCc2ccc3c(n2)NCCC3)CC(=O)O)cn1`: in data set [3], the clearance is 4 mL/min/kg. This compound returned an IC50 in data set [1] of 39 nM. The same compound had a half-life in data set [5] of 9 h.
